For test [1], the system named is human primary AML samples. As to the kind of experiment: CellTiterGlo viability assay, ex vivo. It is filed as cell-based. As for the experimental part: (§1) Drug treatments were carried out for 72 hours. Details are provided in the Supplemental Methods.
(§2) Cell viability of primary samples […]
For murine or human primary AML cells, 100,000 cells/well were plated in a 96-well plate and treated with increasing concentrations of drug. Cell viability, via trypan blue, was measured every 24 hours. If the viability fell below 50% or at 72 hours of treatment, whichever came earlier, cell viability of each plate was measured via CellTiter-Glo. Primary human AML cells were obtained from the OSUCCC Leukemia Tissue Bank Shared […]
Primary AML samples were analyzed by targeted gene sequencing of 80 genes, as previously described (1). Samples were pooled and analyzed on a MiSeq system using the Illuminia MiSeq Reagent Kit v3. Ill umina Isis Banded Smith Waterman aligner and hg19 genome were used to align the sequences. Single nucleotide variant (SNV) and indel calling were performed using MuTect and Varscan2. A variant allele fraction (VAF) cut-off of 0.10 was set for reporting mutations. SNV that are reported as pathogenic SNP were considered mutations.
All other SNV needed to be absent from 1000 Genome database, dsSNP137 or dsSNP142. Visual inspection of all variants was carried out using Integrative Genomics Viewer (Broad Institute) . […]
A general note: Cellular ATP, detected with luciferase, serves as a proxy for viable cell number.

The subject of test [2] is primary FLT3-ITD/IDH2-R140Q murine leukemia cells. The test can be described thus: CellTiterGlo viability assay, ex vivo. Type of test: cell-based. To be noted: Mus musculus, 72 hours. As to the method: as §1, §2
For murine or human primary AML cells, 100,000 cells/well were plated in a 96-well plate and treated with increasing concentrations of drug. Cell viability, via trypan blue, was measured every 24 hours. If the viability fell below 50% or at 72 hours of treatment, whichever came earlier, cell viability of each plate was measured via

Test [3] relates to MV4-11 cells. The test can be described thus: MTT viability assay. Type of test: cell-based. To be noted: Homo sapiens, read-out: IC50 viability. As to the method: as §1
On the technique in general: Formazan colour is commonly taken as a measure of viable cells.

In test [4] the test system is Ba/F3 cells expressing FLT3-ITD. As to the kind of experiment: MTT viability assay. It is filed as cell-based. As to conditions: Mus musculus, read-out: IC50 viability. As to the method:
as §1

In test [5] the test system is MOLM13 cells. The test can be described thus: MTT viability assay. Type of test: cell-based. To be noted: Homo sapiens, read-out: IC50 viability. As to the method:
as §1

The subject of a further test is MOLM13-RES cells. As to the kind of experiment: MTT viability assay. It is filed as cell-based. As to conditions: Homo sapiens, read-out: IC50 viability. As for the experimental part:
as §1

Test [6] has as its system Ba/F3 cells expressing FLT3 D835Y. The test can be described thus: MTT viability assay. As to conditions: Mus musculus, read-out: IC50 viability. Type of test: cell-based. As to the method:
as §1

Test [7] concerns Ba/F3 cells expressing FLT3-ITD/F691L. As to the kind of experiment: MTT viability assay. Type of test: cell-based. To be noted: Mus musculus, BaF3, 72 hours. As for the experimental part:
as §1

The subject of test [8] is Ba/F3 cells expressing FLT3 ITD/D835Y. As to the kind of experiment: MTT viability assay. Type of test: cell-based. To be noted: Mus musculus, read-out: IC50 viability. As to the method:
as §1

In test [9] the test system is Ba/F3 cells expressing FLT3 D835H. The test can be described thus: MTT viability assay. It is filed as cell-based. As to conditions: Mus musculus, read-out: IC50 viability. As to the method: as §1
In the next test the test system is Ba/F3 cells GFP+IL3. The test can be described thus: MTT viability assay. It is filed as cell-based. As to conditions: Mus musculus, read-out: IC50 viability. As for the experimental part:
as §1

In test [10] the test system is Ba/F3 cells expressing FLT3 ITD/D835H. As to the kind of experiment: MTT viability assay. It is filed as cell-based. As to conditions: Mus musculus, read-out: IC50 viability. As for the experimental part:
as §1

The subject of test [11] is MOLM13 cells. The test can be described thus: MOLM13 viability ± coculture with HS5-GFP MSCs (MTT). It is filed as cell-based. As to conditions: Homo sapiens. As to the method: Drug treatments were carried out for 72 hours. Details are provided in the Supplemental Methods. […]
HS5-GFP human bone marrow stromal cells were plated and cultured for 72 hours to near confluence.
MOLM13 cells were then seeded onto HS5-GFP cells to establish a co-culture. Twenty-four hours later, cells
were treated with increasing concentrations of drug for an additional 72 hours. MOLM13 and HS5-GFP cells
were then separated and MTT assay s were performed for cell viability assessment of each cell population. […]

Test [12] has as its system MOLM13 cells. The test can be described thus: MOLM13 viability ± cytokines (MTT). To be noted: Homo sapiens.
Description: Drug treatment effects on cell lines were assessed by MTT assay (Roche Diagnostics), as previously described ([21]). […] Drug treatments were carried out for 72 hours.
Test [13] has as its system MV4-11 cells. As to the kind of experiment: CFU assay with IL-3, GM-CSF or FGF2. It is filed as cell-based, human. As to conditions: 7-day MV4-11 CFU assay. As to the method: For human primary CFU assays, cells were cultured in MethoCult H4035 Optimum without EPO (Stemcell Technologies). For mouse primary CFU assays, cells were directly cultured in MethoCult M3231 (Stemcell Technologies) supplemented with 45 ng/mL of murine IL-6 (mIL-6), mIL-3, and mSCF. Both human and mouse primary cells 10,000 cells were plated in duplicate for each drug concentration. For cell line CFU assays, MV4-11 cells were treated with drugs in the presence of 20 ng/mL IL-3, GM-CSF, or FGF2. Cells were plated in MethoCult H4230 (Stemcell Technologies) in duplicates at 250 cells/plate. Plates were placed in a 37°C incubator for 7 or 14 days for human cell lines and for mouse or human primary cells, respectively. Colonies were identified as clusters containing 40 or more cells. For CFU assays using human primary CD34^+ cells, umbilical cord blood was obtained from the OSU Comprehensive Cancer Center (CCC) Leukemia Tissue Bank Shared Resource, and mononuclear cells were isolated by using density gradient centrifugation. CD34^+ cells were purified using the CD34 UltraPure MicroBead Kit (Miltenyi Biotec) according to the manufacturer’s instructions. CFU assay with CD34^+ cells was performed as described above, and the total number of colonies were counted after 7–10 days.

[14] abbreviates: sample 240: FLT3-ITD, IDH2, NPM1, read-out: IC50 viability.
Where [15] appears, read: sample 370: FLT3-ITD, IDH1, NPM1, SMARCA2, read-out: IC50 viability.
Where [16] appears, read: sample 0762 (762): FLT3-ITD, NRAS, KRAS, DNMT3A, NPM1, D835E, read-out: IC50 viability.
The mark [17] stands for this setting: sample 1069: FLT3-ITD, SRSF2, IDH2, DNMT3A, read-out: IC50 viability.
Setting [18] is: sample 1355: FLT3-ITD, NPM1, IDH2, read-out: IC50 viability.
[19] abbreviates: MV4-11, FLT3-ITD, MTT, 72 hours.
The mark [20] stands for this setting: BaF3, Ba/F3 FLT3 ITD, MTT, 72 hours.
[21] abbreviates: MOLM-13, MOLM13, FLT3-ITD, MTT, 72 hours.
Setting [22] is: MOLM13-RES, FLT3-ITD/D835Y, MTT, 72 hours.
Where [23] appears, read: BaF3, Ba/F3 FLT3 D835Y, MTT, 72 hours.
[24] abbreviates: BaF3, Ba/F3 FLT3 ITD/D835Y, MTT, 72 hours.
The mark [25] stands for this setting: BaF3, Ba/F3 FLT3 D835H, MTT, 72 hours.
Setting [26] is: BaF3, Ba/F3 GFP+IL3, MTT, 72 hours.
Setting [27] is: BaF3, Ba/F3 FLT3 ITD/D835H, MTT, 72 hours.
[28] abbreviates: MOLM-13, MOLM13 + HS5-GFP co-culture, read-out: IC50 viability.
[29] abbreviates: MOLM-13, MOLM13 alone (co-culture experiment), read-out: IC50 viability.

Like-named read-outs stand apart in the source and are kept apart here.

Experimental findings from article PMC7714403 (JCI Insight, 2020) are described below.

Broadly, the IC50 is the concentration at which inhibition is half-maximal. With `CC1(COc2ccc3c(c2)ncn3-c2ccc3cccc(N4CCC(N)CC4)c3n2)COC1` [Crenolanib, crenolanib], the IC50 came to 90 nM in test [1] (setting [14]); 192 nM in test [1] (setting [15]); 547 nM in test [1] (setting [16]); 488 nM in test [1] (setting [17]); 305 nM in [1] (setting [18]); 3100 nM in [2]. In addition, the IC50 in the test with MV4-11 cells [3] (setting [19]) came out at 6.6 nM; in test [4] (setting [20]) it was 1.8 nM; in the test with MOLM13 cells [5] (setting [21]) it was 7.4 nM; with MOLM13-RES cells (setting [22]), 11 nM; in test [6] (setting [23]), 0.068 nM; in test [7] it was 58 nM. In addition, the IC50 in test [8] (setting [24]) was 35 nM; in test [9] (setting [25]), 0.27 nM; in the test with Ba/F3 cells GFP+IL3 (setting [26]), 773 nM; in test [10] (setting [27]) it was 38 nM; in the test on MOLM13 cells [11] (setting [28]) it was 20 nM; with MOLM13 cells [11] (setting [29]), 5 nM.
Regarding `CNC(=O)c1cc(Oc2ccc(NC(=O)Nc3ccc(Cl)c(C(F)(F)F)c3)cc2)ccn1` [Sorafenib, sorafenib], the half-maximal inhibitory concentration (IC50) came out at 1480 nM in [1] (setting [14]); 1030 nM in [1] (setting [15]); 195 nM in test [1] (setting [16]); 659 nM in test [1] (sample 774: FLT3-ITD, CBL, IDH1, NPM1, read-out: IC50 viability); 357 nM in test [1] (setting [17]); 3530 nM in [1] (setting [18]). In addition, the IC50 in [2] was more than 10000 nM; in the test on MV4-11 cells [3] (setting [19]) it was 8 nM; in test [4] (setting [20]), 1.4 nM; in the test with MOLM13 cells [5] (setting [21]) it was 26 nM; with MOLM13-RES cells (setting [22]), 1790 nM; in test [6] (setting [23]) it was 233 nM. Moreover, the IC50 in test [7] is 1340 nM; in test [8] (setting [24]) it was 3340 nM; in test [9] (setting [25]), 76 nM; with Ba/F3 cells GFP+IL3 (setting [26]), 3850 nM; in test [10] (setting [27]) it was 463 nM; in the test on MOLM13 cells [11] (setting [28]), 70 nM. The IC50 in the test on MOLM13 cells [11] (setting [29]) was found to be 14 nM.
For the molecule `CC(C)(C)c1cc(NC(=O)Nc2ccc(-c3cn4c(n3)sc3cc(OCCN5CCOCC5)ccc34)cc2)no1` [Quizartinib, quizartinib], the IC50 in test [1] (read-out: IC50 viability, sample 240: FLT3-ITD, IDH2, NPM1) worked out at 238 nM; in [1] (read-out: IC50 viability, sample 370: FLT3-ITD, IDH1, NPM1, SMARCA2) it was 375 nM; in test [1] (read-out: IC50 viability, sample 0762 (762): FLT3-ITD, NRAS, KRAS, DNMT3A, NPM1, D835E) it was 357 nM; in [1] (read-out: IC50 viability, sample 1069: FLT3-ITD, SRSF2, IDH2, DNMT3A), 195 nM; in test [1] (read-out: IC50 viability, sample 1355: FLT3-ITD, NPM1, IDH2), 400 nM; in the test on MV4-11 cells [3] (MV4-11, 72 h) it was 1.7 nM. The IC50 with MOLM13 cells [5] (MOLM-13, 72 h) is 2.5 nM; in the test with MOLM13-RES cells (72 h) it was 400 nM; in the test on Ba/F3 cells GFP+IL3 (BaF3, 72 h), more than 10000 nM; in the test on MOLM13 cells [11] (MOLM-13, read-out: IC50 viability, MOLM13 + HS5-GFP co-culture), 4.7 nM.
For `Cc1ccc(C(=O)Nc2ccc(CN3CCN(C)CC3)c(C(F)(F)F)c2)cc1C#Cc1cnc2cccnn12` [Ponatinib, ponatinib], the IC50 in test [4] (BaF3, 72 h) was 2.8 nM; in [6] (BaF3, 72 h), 158 nM; in test [7], 41.9 nM; in test [8] (BaF3, 72 h), 106 nM; in test [9] (BaF3, 72 h), 89 nM; in the test with Ba/F3 cells GFP+IL3 (BaF3, 72 h), 920 nM. Further, the IC50 in test [10] (BaF3, 72 h) was 126 nM.
For `CO[C@@H]1[C@H](N(C)C(=O)c2ccccc2)C[C@H]2O[C@]1(C)n1c3ccccc3c3c4c(c5c6ccccc6n2c5c31)C(=O)NC4` [Midostaurin, midostaurin], the IC50 in test [1] (sample 036: FLT3 wild-type, NRAS, IDH2, NPM1, DNMT3A, read-out: IC50 viability) was 334 nM; with MOLM13 cells [12] (MOLM-13, read-out: IC50 viability, MOLM13 + GM-CSF), 47.4 nM; in the test with MOLM13 cells [12] (MOLM-13, read-out: IC50 viability, MOLM13, no cytokine) it was 18.9 nM; in the test on Ba/F3 cells GFP+IL3 (setting [26]) it was 328 nM; in [10] (setting [27]) it was 28 nM; in the test with MOLM13 cells [11] (setting [28]) it was 99 nM. Moreover, in the test on MV4-11 cells [13], the “Colony formation with IL-3, GM-CSF, or FGF2” value is listed as “fully or partially rescued”.
